The source made the active and inactive calls. The rule behind the calls is not given here.
How the values were obtained:
[1] = Cell cycle arrest in human HCT116 cells assessed as accumulation at sub-G1 phase at 1 uM after 24 hrs by FACS flow cytometric analysis (reference value: 1.37 +/- 0.95%); type: functional, cell-based; conditions: HCT-116
Mus musculus [2] = assay: Toxicity in nude mouse xenografted with human PC3 cells assessed as change in body weight at 40 mg/kg,iv administered every 2 days for 5 doses measured on day 38 relative to control; type: organism-based, PC-3; design: dose 40 mg/kg; conditions: in vivo, 48 h
[3] = Cytotoxicity against human DLD1 cells assessed as growth inhibition after 72 hrs by Alamar Blue assay; type: functional, cell-based; conditions: DLD-1, 72 h
Mus musculus [4] = assay: Toxicity in nude mouse xenografted with human H3347 cells assessed as body weight loss at 30 mg/kg,iv qd administered for 6 days measured on day 13 relative to control; type: organism-based; design: dose 30 mg/kg; conditions: in vivo, 144 h
HCT-116 [5] = assay: Induction of DNA interstand crosslinking in human HCT116 cells under aerobic condition assessed as decrease in tail moment at 0.5 to 1 uM preincubated for 1 hr followed by 20 Gy X-ray irradiation by comet assay; type: cell-based
HCT-116 [6] = assay: Antitumor activity against human HCT116 cells xenografted in nude mouse assessed as survival at 30 mg/kg,iv qd administered for 6 days; type: functional, organism-based; design: dose 30 mg/kg
[7] = Oral bioavailability in Sprague-Dawley rat at 50 mg/kg; type: ADME, organism-based; conditions: in vivo
Mus musculus [8] = assay: Toxicity in CD-1 (ICR) mouse assessed as body weight loss at 75 to 105 mg/kg, iv measured on day 8; type: organism-based; design: dose 75-105 mg/kg, route intravenous; conditions: in vivo
Mus musculus [9] = assay: Induction of apoptosis in HCT116 cells xenografted in nude mouse at 30 mg/kg, iv qd administered for 6 days measured 24 hrs post last dose by TUNEL assay; type: functional, organism-based; design: dose 30 mg/kg; conditions: HCT-116
Mus musculus [10] = assay: Toxicity in iv dosed CD-1 (ICR) mouse assessed as piloerection measured for 14 days; type: organism-based; conditions: in vivo, 336 h
[11] = Cell cycle arrest in human HCT116 cells assessed as accumulation at S phase at 2 uM after 48 hrs by FACS flow cytometric analysis (reference value: 12.11 +/- 4.28%); type: functional, cell-based; conditions: HCT-116
Mus musculus [12] = assay: Toxicity in iv dosed CD-1 (ICR) mouse assessed as swelling of nose measured for 14 days; type: organism-based; conditions: in vivo, 336 h
[13] = Cell cycle arrest in human HCT116 cells assessed as accumulation at S phase at 4 uM after 24 hrs by FACS flow cytometric analysis (reference value: 18.71 +/- 2.25%); type: functional, cell-based; conditions: HCT-116
[14] = Cell cycle arrest in human HCT116 cells assessed as accumulation at G2/M phase at 4 uM after 72 hrs by FACS flow cytometric analysis (reference value: 12.82 +/- 2.19%); type: functional, cell-based; conditions: HCT-116
Mus musculus [15] = assay: Toxicity in iv dosed CD-1 (ICR) mouse assessed as hunch posture measured for 14 days; type: organism-based; conditions: in vivo, 336 h
[16] = Cell cycle arrest in human HCT116 cells assessed as accumulation at sub-G1 phase at 1 uM after 72 hrs by FACS flow cytometric analysis (reference value: 3.29 +/- 1.39%); type: functional, cell-based; conditions: HCT-116
[17] = Antitumor activity against human HCT116 cells xenografted in nude mouse assessed as tumor growth inhibition at 30 mg/kg,iv qd administered for 6 days measured on day 31 relative to control; type: functional; conditions: HCT-116, iv, read-out: TGI
[18] = Antitumor activity against human PC3 cells xenografted in nude mouse assessed as tumor growth inhibition at 50 mg/kg,iv administered every 2 days for 5 doses measured on day 38 relative to control; type: functional; conditions: PC-3, iv, read-out: TGI
[19] = Cell cycle arrest in human HCT116 cells assessed as accumulation at G1 phase at 1 uM after 48 hrs by FACS flow cytometric analysis (reference value: 62.16 +/- 5.94%); type: functional, cell-based; conditions: HCT-116
[20] = Cell cycle arrest in human HCT116 cells assessed as accumulation at S phase at 1 uM after 24 hrs by FACS flow cytometric analysis (reference value: 18.71 +/- 2.25%); type: functional, cell-based; conditions: HCT-116
[21] = Cell cycle arrest in human HCT116 cells assessed as accumulation at G2/M phase at 2 uM after 48 hrs by FACS flow cytometric analysis (reference value: 23.95 +/- 1.87%); type: functional, cell-based; conditions: HCT-116
[22] = Antitumor activity against human PC3 cells xenografted in nude mouse assessed as tumor growth inhibition at 30 mg/kg,iv qd administered for 6 days measured on day 38 relative to control; type: functional; conditions: PC-3, iv, read-out: TGI
[23] = Cell cycle arrest in human HCT116 cells assessed as accumulation at sub-G1 phase at 1 uM after 48 hrs by FACS flow cytometric analysis (reference value: 1.65 +/- 0.06%); type: functional, cell-based; conditions: HCT-116
[24] = Cell cycle arrest in human HCT116 cells assessed as accumulation at G1 phase at 4 uM after 24 hrs by FACS flow cytometric analysis (reference value: 48.75 +/- 3.69%); type: functional, cell-based; conditions: HCT-116
[25] = Cell cycle arrest in human HCT116 cells assessed as accumulation at G2/M phase at 1 uM after 24 hrs by FACS flow cytometric analysis (reference value: 31.55 +/- 4.63%); type: functional, cell-based; conditions: HCT-116
PC-3 = assay: Antitumor activity against human PC3 cells xenografted in nude mouse assessed as survival at 40 mg/kg,iv administered every 2 days for 5 doses; type: functional, organism-based; design: dose 40 mg/kg
NCI-H460 = assay: Antitumor activity against human H460 cells xenografted in nude mouse assessed as survival at 30 mg/kg,iv qd administered for 6 days; type: functional, organism-based; design: dose 30 mg/kg
Mus musculus [26] = assay: Toxicity in CD-1 (ICR) mouse assessed as gross lesions in thymus at 150 mg/kg, iv measured for 14 days; type: organism-based; design: dose 150 mg/kg, route intravenous; conditions: in vivo, 336 h
[27] = Antitumor activity against human H3347 cells xenografted in nude mouse assessed as tumor growth inhibition at 30 mg/kg,iv qd administered for 6 days measured on day 15 relative to control; type: functional
[28] = Cell cycle arrest in human HCT116 cells assessed as accumulation at sub-G1 phase at 4 uM after 24 hrs by FACS flow cytometric analysis (reference value: 1.37 +/- 0.95%); type: functional, cell-based; conditions: HCT-116
[29] = Cell cycle arrest in human HCT116 cells assessed as accumulation at sub-G1 phase at 4 uM after 72 hrs by FACS flow cytometric analysis (reference value: 3.29 +/- 1.39%); type: functional, cell-based; conditions: HCT-116
[30] = Antitumor activity against human PC3 cells xenografted in nude mouse assessed as tumor growth inhibition at 40 mg/kg,iv administered every 2 days for 5 doses measured on day 21 relative to control; type: functional, PC-3
HT-29 = assay: Cytotoxicity against human HT-29 cells assessed as growth inhibition after 72 hrs by Alamar Blue assay; type: functional, cell-based; conditions: HT-29, 72 h
[31] = Antitumor activity against human H460 cells xenografted in nude mouse assessed as tumor growth inhibition at 30 mg/kg,iv qd administered for 6 days measured on day 37 relative to control; type: functional; conditions: NCI-H460, iv, read-out: TGI
[32] = Cell cycle arrest in human HCT116 cells assessed as accumulation at G1 phase at 2 uM after 24 hrs by FACS flow cytometric analysis (reference value: 48.75 +/- 3.69%); type: functional, cell-based; conditions: HCT-116
[33] = Induction of pEGFP-N1 DNA (unknown origin) interstand crosslinking after 2 hrs by alkaline agarose gel shift assay
[34] = Cell cycle arrest in human HCT116 cells assessed as accumulation at G2/M phase at 2 uM after 72 hrs by FACS flow cytometric analysis (reference value: 12.82 +/- 2.19%); type: functional, cell-based; conditions: HCT-116

`CCN(CC)CC(=O)Nc1ccc(NC(=O)Nc2ccc(N(CCCl)CCCl)cc2)cc1` gave an Activity [1] of 1.58%, an Activity (Mus musculus [2]) of -12% and an IC50 [3] of 3.85 µM. For the same compound, the Activity (Mus musculus [4]) was 10%, the Activity (HCT-116 [5]) was “Active” and the Activity (HCT-116 [6]) was “Active”. For the same compound, the bioavailability [7] was 5.32%, the Activity (Mus musculus [8]) was “Toxic” and the Activity (Mus musculus [9]) was “Active”. The Activity (Mus musculus [10]) was “Dose-dependent effect”, the Activity [11] was 11.9% and the Activity (Mus musculus [12]) was “Dose-dependent effect”. For the same compound, the Activity [13] was 27.6%, the Activity [14] was 41.4% and the Activity (Mus musculus [15]) was “Dose-dependent effect”. It also gave an Activity [16] of 12.4%, an inhibition in vivo at 30 mg/kg [17] of 84% and an inhibition in vivo at 50 mg/kg [18] of 62%. For the same compound, the Activity [19] was 49.6%, the Activity [20] was 18.7% and the Activity [21] was 28.2%. It also gave an inhibition in vivo at 30 mg/kg [22] of 16%, an Activity [23] of 9.86% and an Activity [24] of 12.8%. The Activity [25] was 63.2%, the Activity (PC-3) was “Active” and the Activity (NCI-H460) was “Active”. For the same compound, the Activity (Mus musculus [26]) was “Toxic”, the “%max” value [27] was 94% and the Activity [28] was 4.31%. The Activity [29] was 17.9%, the “%max” value [30] was 68% and the IC50 (HT-29) was 19.1 µM. The inhibition in vivo at 30 mg/kg [31] was 53%, the Activity [32] was 11.8% and the Activity [33] was “Dose-dependent effect”. It also gave an Activity [34] of 29.2%.
